Measured values published in patent publication US10765114B2, “4-amino-6-(pyridyl and 2-substitutedphenyl)-picolinates and 6-amino-2-(pyridyl and 2-substitutedphenyl)-pyrimidine-4-carboxylates and their use as herbicides” (Dow AgroSciences LLC, priority 2013, dated 2020).

Columns and labels:
Assay in all cases: Post-Emergent Test III (Wheat and Barley)
POLCO (wild buckwheat) = type: in vivo, Polygonum convolvulus; conditions: for Visual Growth Reduction (%) 21 Days After Application, POLCO: postemergence
Description: (§1) Seeds of the desired test plant species were planted in Sun Gro MetroMix® 306 planting mixture, which typically has a pH of 6.0 to 6.8 and an organic matter content of about 30 percent, in plastic pots with a surface area of 103.2 square centimeters (cm^2). When required to ensure good germination and healthy plants, a fungicide treatment and/or other chemical or physical treatment was applied. The plants were grown for 7-36 days in a greenhouse with an approximate 14 h photoperiod which was maintained at about 18° C. during the day and 17° C. during the night. Nutrients and water were added on a regular basis and supplemental lighting was provided with overhead metal halide 1000-Watt lamps as necessary. The plants were employed for testing when they reached the second or third true leaf stage.
(§2) A weighed amount, determined by the highest rate to be tested, of each test compound was placed in a 25 mL glass vial and was dissolved in 4 mL of a 97:3 v/v mixture of acetone and DMSO to obtain concentrated stock solutions. […] The concentrated stock solutions obtained were diluted with 20 mL of an aqueous mixture containing acetone, water, isopropyl alcohol, DMSO, Agri-Dex crop oil concentrate, and X-77 surfactant in a 48:39:10:1.5:1.5:0.02 v/v ratio to obtain spray solutions containing the highest application rates. Additional application rates were obtained by serial dilution of 12 mL of the high rate solution into a solution containing 2 mL of 97:3 v/v mixture of acetone and DMSO and 10 mL of an aqueous mixture containing acetone, water, isopropyl alcohol, DMSO, Agri-Dex crop oil concentrate, and X-77 surfactant in a 48:39:10:1.5:1.5:0.02 v/v ratio to obtain ½×, ¼×, ⅛× and 1/16× rates of the high rate. Compound requirements are based upon a 12 mL application volume at a rate of 187 liters per hectare (L/ha). Formulated compounds were applied to the plant material with an overhead Mandel track sprayer equipped with 8002E nozzles calibrated to deliver 187 L/ha over an application area of 0.503 square meters at a spray height of 18 inches (43 cm) above the average plant canopy height. Control plants were sprayed in the same manner with the solvent blank.
(§3) The treated plants and control plants were placed in a greenhouse as described above and watered by subirrigation to prevent wash-off of the test compounds. After 21 dAYS, the condition of the test plants as compared with that of the untreated plants was determined visually and scored on a scale of 0 to 100 percent where 0 corresponds to no injury and 100 corresponds to complete kill and presented as indicated in Table A.
(§4) By applying the well-accepted probit analysis as described by J. Berkson in Journal of the American Statistical Society, 48, 565 (1953) and by D. Finney in “Probit Analysis” Cambridge University Press (1952), herbicidal injury of a specific compound at various rates can be used to calculate GR10, GR20, GR50, GR80 and GR90 values, which are defined as growth reduction factors that correspond to the effective dose of herbicide required to provide plant growth reduction (GR) of 10 percent, 20 percent, 50 percent, 80 percent and 90 percent, respectively. Probit analysis was applied to data collected from multiple dose rates of individual compounds utilizing the procedures explained in the following examples. The analysis of those dose rates is captured in the following tables.

APESV (windgrass) = type: in vivo, Apera spica-venti
Description: as §1, §2, §3, §4

KCHSC (kochia) = type: in vivo, Kochia scoparia
Procedure, shortened: (§5)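 Injury was rated visually on a 0 to 100 percent scale 21 days after treatment, relative to untreated plants, and probit analysis of multiple dose rates gave growth-reduction values. Plants at the second or third true leaf stage had been track-sprayed at 187 L/ha.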

PAPRH (common poppy) = type: in vivo, Papaver rhoeas; conditions: for Visual Growth Reduction (%) 21 Days After Application, PAPRH: postemergence
Description: as §1, §2, §3, §4

TRZSS = type: in vivo
Procedure, shortened: as §5

HORSS = type: in vivo
Procedure, shortened: as §5

BRSSS = type: in vivo; conditions: for Visual Growth Reduction (%) 21 Days After Application, BRSSS: postemergence
Procedure, shortened: as §5

SASKR (Russian thistle) = type: in vivo, Salsola tragus; conditions: for Visual Growth Reduction (%) 21 Days After Application, SASKR: postemergence
Description: as §1, §2, §3, §4

[1] = effective dose for growth reduction of 50 percent, probit analysis
[2] = effective dose for growth reduction of 80 percent, probit analysis
[3] = effective dose for growth reduction of 90 percent, probit analysis
[4] = effective dose for growth reduction of 10 percent, probit analysis
[5] = effective dose for growth reduction of 20 percent, probit analysis

## Cc1c(-c2cc(N)c(Cl)c(C(=O)O)n2)ccc(Cl)c1F [Compound 52]
POLCO (wild buckwheat); 35 g ai/ha
  Visual Growth Reduction (%) 21 Days After Application, POLCO: D (60-74)
POLCO (wild buckwheat); 70 g ai/ha
  Visual Growth Reduction (%) 21 Days After Application, POLCO: C (75-84)
POLCO (wild buckwheat); 140 g ai/ha
  Visual Growth Reduction (%) 21 Days After Application, POLCO: A (95-100)
POLCO (wild buckwheat); [1]
  GR50, POLCO: 10 g ai/ha
POLCO (wild buckwheat); [2]
  GR80, POLCO: 41 g ai/ha
POLCO (wild buckwheat); [3]
  GR90, POLCO: 84 g ai/ha
APESV (windgrass); Apera spica-venti, post-emergence, 504 h, 35 g ai/ha, postemergence, read-out: Visual Growth Reduction (%) 21 Days After Application, APESV
  pest or weed control at 35 g/ha: 60 to 74%
APESV (windgrass); Apera spica-venti, post-emergence, 504 h, 70 g ai/ha, postemergence, read-out: Visual Growth Reduction (%) 21 Days After Application, APESV
  pest or weed control at 70 g/ha: 75 to 84%
APESV (windgrass); Apera spica-venti, post-emergence, 504 h, 140 g ai/ha, postemergence, read-out: Visual Growth Reduction (%) 21 Days After Application, APESV
  pest or weed control at 140 g/ha: 85 to 94%
APESV (windgrass); [1]
  GR50, APESV: 23 g ai/ha
APESV (windgrass); [2]
  GR80, APESV: 63 g ai/ha
APESV (windgrass); [3]
  GR90, APESV: 107 g ai/ha
KCHSC (kochia); Bassia scoparia, post-emergence, 504 h, 35 g ai/ha, postemergence, read-out: Visual Growth Reduction (%) 21 Days After Application, KCHSC
  pest or weed control at 35 g/ha: 95 to 100%
KCHSC (kochia); Bassia scoparia, post-emergence, 504 h, 70 g ai/ha, postemergence, read-out: Visual Growth Reduction (%) 21 Days After Application, KCHSC
  pest or weed control at 70 g/ha: 95 to 100%
KCHSC (kochia); Bassia scoparia, post-emergence, 504 h, 140 g ai/ha, postemergence, read-out: Visual Growth Reduction (%) 21 Days After Application, KCHSC
  pest or weed control at 140 g/ha: 95 to 100%
KCHSC (kochia); [1]
  GR50, KCHSC: 1 g ai/ha
KCHSC (kochia); [2]
  GR80, KCHSC: 3 g ai/ha
KCHSC (kochia); [3]
  GR90, KCHSC: 9 g ai/ha
PAPRH (common poppy); 35 g ai/ha
  Visual Growth Reduction (%) 21 Days After Application, PAPRH: D (60-74)
PAPRH (common poppy); 70 g ai/ha
  Visual Growth Reduction (%) 21 Days After Application, PAPRH: D (60-74)
PAPRH (common poppy); 140 g ai/ha
  Visual Growth Reduction (%) 21 Days After Application, PAPRH: C (75-84)
PAPRH (common poppy); [1]
  GR50, PAPRH: 4 g ai/ha
PAPRH (common poppy); [2]
  GR80, PAPRH: >140 g ai/ha
PAPRH (common poppy); [3]
  GR90, PAPRH: >140 g ai/ha
TRZSS; Triticum aestivum, post-emergence, 504 h, 35 g ai/ha, postemergence, read-out: Visual Growth Reduction (%) 21 Days After Application, TRZSS
  pest or weed control at 35 g/ha: 60 to 74%
TRZSS; Triticum aestivum, post-emergence, 504 h, 70 g ai/ha, postemergence, read-out: Visual Growth Reduction (%) 21 Days After Application, TRZSS
  pest or weed control at 70 g/ha: 75 to 84%
TRZSS; Triticum aestivum, post-emergence, 504 h, 140 g ai/ha, postemergence, read-out: Visual Growth Reduction (%) 21 Days After Application, TRZSS
  pest or weed control at 140 g/ha: 75 to 84%
TRZSS; [4]
  GR10, TRZSS: 1 g ai/ha
TRZSS; [5]
  GR20, TRZSS: 1 g ai/ha
HORSS; Hordeum vulgare, post-emergence, 504 h, 35 g ai/ha, postemergence, read-out: Visual Growth Reduction (%) 21 Days After Application, HORSS
  pest or weed control at 35 g/ha: 60 to 74%
HORSS; Hordeum vulgare, post-emergence, 504 h, 70 g ai/ha, postemergence, read-out: Visual Growth Reduction (%) 21 Days After Application, HORSS
  pest or weed control at 70 g/ha: 75 to 84%
HORSS; Hordeum vulgare, post-emergence, 504 h, 140 g ai/ha, postemergence, read-out: Visual Growth Reduction (%) 21 Days After Application, HORSS
  pest or weed control at 140 g/ha: 85 to 94%
HORSS; [4]
  GR10, HORSS: 1 g ai/ha
HORSS; [5]
  GR20, HORSS: 2 g ai/ha
BRSSS; 35 g ai/ha
  Visual Growth Reduction (%) 21 Days After Application, BRSSS: B (85-94)
BRSSS; 70 g ai/ha
  Visual Growth Reduction (%) 21 Days After Application, BRSSS: B (85-94)
BRSSS; 140 g ai/ha
  Visual Growth Reduction (%) 21 Days After Application, BRSSS: B (85-94)
BRSSS; [1]
  GR50, BRSSS: 1 g ai/ha
BRSSS; [2]
  GR80, BRSSS: 11 g ai/ha
BRSSS; [3]
  GR90, BRSSS: 41 g ai/ha
SASKR (Russian thistle); 35 g ai/ha
  Visual Growth Reduction (%) 21 Days After Application, SASKR: D (60-74)
SASKR (Russian thistle); 70 g ai/ha
  Visual Growth Reduction (%) 21 Days After Application, SASKR: D (60-74)
SASKR (Russian thistle); 140 g ai/ha
  Visual Growth Reduction (%) 21 Days After Application, SASKR: C (75-84)
SASKR (Russian thistle); [1]
  GR50, SASKR: 1 g ai/ha
SASKR (Russian thistle); [2]
  GR80, SASKR: >140 g ai/ha
SASKR (Russian thistle); [3]
  GR90, SASKR: >140 g ai/ha
